Laboratory results from patent US20160010094A1, “TRANSGENIC CELL SELECTION” (UNIVERSITE DE GENEVE, priority 2013, published 2016).

How the values were obtained:
[1] = test system: Hela cells expressing HU and TMTX resistance gene; test: Hydroxyurea and Trimetrexate cytotoxic assay: selective enrichment of transduced (GFP positive) Hela cells by FACS; assay type: cell-based; details: three days, FIG. 2
Description: Control and transduced Hela cells were incubated with HU and TMTX for 3 days, after which survival rate of both cell population were measured by FACS analysis. Hela cells were transduced with lentivector expressing GFP and the Hydroxyurea or Trimetrexate resistance genes. Three to five days after transduction, cell transduction efficiency was determined by measuring GFP fluorescence. Transduced Hela cells were treated with the appropriate concentration of cytotoxic compounds and survival rate were measured by FACS analysis. Next, the ability of either HU or TMTX to selectively enrich transduced Hela cells was evaluated by FACS. Hela cells were transduced as outlined above and then cultured in control media or media including 25 μM HU, 100 μM HU, 1 nM TMTX or 10 nM TMTX. After culture in the indicated conditions for three days, the proportion of transduced cells (GFP positive) versus non-transduced cells was determined by FACS and the results plotted.

[2] = test system: GFP expressing blood cells; test: In vivo selective enrichment of blood cells expressing HU resistance gene after bone marrow transplantation; design: species or system C57/B16 mice
Description: FIG. 3: In vivo selective enrichment of blood cells expressing HU and TMTX resistance gene. Bone marrow transplantation experiments were performed in C57/b16 mice. Total bone marrow was obtained from large bones of C57/B16 mice and maintained for 24 h in IMDM medium supplemented with 100 ng/ml of SCF. Bone marrow cells were then transduced with 10^9 lentivector particles for 8 hours before being injected into the tail vein of irradiated C57/B16 mice. Six to eight weeks later, blood samples were taken and GFP expression was measured by FACS. After which mice were injected intraperitoneally with either HU or TMTX with initial doses of HU of 200, 500 and 1000 mg/kg per day and initial doses of TMTX of 10, 25, 50 mg/kg with 2 injections per week. GFP expressing blood cells were measured once a week. (A) Irradiated mice, transplanted with bone marrow cells and transduced with a lentivector expressing GFP and the hydroxyurea resistance (GFP-HU).
In order to more directly assess the ability of HU and TMTX to select cells in vivo studies were undertaken in mice injected with transduced cells. […] Six to eight weeks later, blood samples were taken and GPF expression was measured by FACS. […] GFP expressing blood cells were measured once a week.

SMILES | selection of transduced cells (GFP positive versus non-transduced, FACS) ([1]; 25 μM HU and 100 μM HU) | transient increase in GFP-positive leukocytes ([2]; irradiated mice transplanted with bone marrow cells transduced with GFP-HU lentivector, hydroxyurea-treated, FIG. 3A) | circulating GFP positive cells ([2]; some treated animals, one week after HU injection, intraperitoneal, transient increase, FIG. 3) | selection of transduced cells (GFP positive versus non-transduced, FACS) ([1]; 10 nM TMTX (tested at 1 nM and 10 nM))
NC(=O)NO [HU, Hydroxyurea] | modest selection | up to 8% | 5%-10% | 
COc1cc(NCc2ccc3nc(N)nc(N)c3c2C)cc(OC)c1OC [TMTX, Trimetrexate] |  |  |  | significant selection
